Assay results reported in PMC4352855 (Scientific Reports, 2015).
“Also recorded” adds a separate entry of the source.

Experiments:
LLO = target: T1, LLO (Listeria monocytogenes serovar 1/2a, UniProt P13128); details: cited from earlier work
T1 construct: His6 (C); made in house; host or cells: Escherichia coli BL21(DE3)

L. monocytogenes = details: cited from earlier work
S467A-LLO = target: T2, S467A-LLO (Listeria monocytogenes serovar 1/2a, UniProt P13128, S467A); format: biochemical; details: mutant S467A compared with LLO, Fig. 2b
T2 construct: His6 (C); made in house; host or cells: Escherichia coli BL21(DE3)

Y427A-LLO = target: T3, Y427A-LLO (Listeria monocytogenes serovar 1/2a, UniProt P13128, Y427A); format: biochemical; details: mutant Y427A compared with LLO, Fig. 2b
T3 construct: His6 (C); made in house; host or cells: Escherichia coli BL21(DE3)

V428A-LLO = target: T4, V428A-LLO (Listeria monocytogenes serovar 1/2a, UniProt P13128, V428A); format: biochemical; details: mutant V428A compared with LLO, Fig. 2b
T4 construct: His6 (C); made in house; host or cells: Escherichia coli BL21(DE3)

S466A-LLO = target: T5, S466A-LLO (Listeria monocytogenes serovar 1/2a, UniProt P13128, S466A); format: biochemical; details: mutant S466A compared with LLO, Fig. 2b
T5 construct: His6 (C); made in house; host or cells: Escherichia coli BL21(DE3)

SMILES | effect on hemolytic activity of LLO (LLO) | antimicrobial activity (L. monocytogenes) | sensitivity to Myr in the inhibition of hemolytic activity (S467A-LLO) | sensitivity to Myr in the inhibition of hemolytic activity (Y427A-LLO) | sensitivity to Myr in the inhibition of hemolytic activity (V428A-LLO) | sensitivity to Myr in the inhibition of hemolytic activity (S466A-LLO)
O=c1c(O)c(-c2ccc(O)c(O)c2)oc2cc(O)ccc12 [fisetin] | inhibit its hemolytic activity; also recorded: attenuating the hemolytic activity of LLO | without antimicrobial activity; also recorded: without anti-bacterial activity | – | – | – | –
O=c1c(O)c(-c2cc(O)c(O)c(O)c2)oc2cc(O)cc(O)c12 [Myr, myricetin] | – | – | less sensitive | less sensitive | less sensitive | less sensitive
